Laboratory results as given in patent publication US7238340B1, “Monoamine, diamide, thiol-containing metal chelating agents” (CIS bio international, priority 1991, dated 2007).
Like-named read-outs stand apart in the source and are kept apart here. Starred links: 1 amine or outer side, 2 acyl side, 3 side chain; linkers in the order of their positions; H or OH if unused. Positions of bridges follow the written chain, without caps; N, C: chain ends. Non-standard residues stand in square brackets, D forms with d. Residues, ends and D or L forms follow the SMILES beside them. Chains are numbered I, II in the order given. No end group written: not given here. *: point of attachment. Phe(4-Cl) = N[C@@H](Cc1ccc(Cl)cc1)C(=O)O; d2Nal = N[C@H](Cc1ccc2ccccc2c1)C(=O)O; εLys = N[C@@H](CCCCN[*:1])C(=O)[*:2]; Propyl(3-NH2) = NCCC*; βAla = NCCC(=O)O

Legend:
[1] = test system: CA20948 rat pancreatic tumor; set-up: species or system Lewis rats; conditions: in vivo, iv
Procedure: In vivo imaging of somatostatin receptors expressed by rat tumor cells was performed essentially as described by Bakker et al. (1991, Life Sciences 49: 1593–1601).
CA20948 rat pancreatic tumor cells, thawed from frozen harvested tumor brei, were implanted intramuscularly into the right hind thigh of 6 week old Lewis rats in a suspension of 0.05 to 0.1 mL/animal. The tumors were allowed to grow to approximately 0.5 to 2 g, harvested, and tumor brei was used to implant a second, naive set of Lewis rats. Passaging in this fashion was repeated to generate successive generations of tumor-bearing animals. The tumor-bearing animals used for the in vivo studies were usually from the third to fifth passage and carried 0.2 to 2 g tumors.
For studies of the specificity of radiotracer localization in the tumors, selected animals were given an subcutaneous SSTR-blocking dose (4 mg/kg) of octreotide 30 minutes prior to injection of the radiotracer.
Third- to fifth-passage CA20948 tumor-bearing Lewis rats were restrained and injected intravenously via the dorsal tail vein with a dose of 0.15–0.20 mCi of a ^99mTc-labeled SSTR targeting imaging agent of the invention (corresponding to 3 to 8 μg peptide in 0.2 to 0.4 mL).
At selected times, the animals were sacrificed by cervical dislocation and selected necropsy was performed. Harvested tissue samples were weighed and counted along with an aliquot of the injected dose in a gamma well-counter.

[2] = test system: fresh human platelet-rich plasma; test: Platelet aggregation inhibition assay (ADP-induced); type: cell-based
Procedure: Platelet aggregation studies were performed essentially as described by Zucker (1989, Methods in Enzymol. 169: 117–133). Briefly, platelet aggregation was assayed with or without putative platelet aggregation inhibitory compounds using fresh human platelet-rich plasma, comprising 300,000 platelets per microlitre. Platelet aggregation was induced by the addition of a solution of adenosine diphosphate to a final concentration of 10 to 15 micromolar, and the extent of platelet aggregation monitored using a Bio/Data aggregometer (Bio/Data Corp., Horsham, Pa.). The concentrations of platelet aggregation inhibitory compounds used were varied from 0.1 to 500 μg/mL. The concentration of inhibitor that reduced the extent of platelet aggregation by 50% (defined as the IC50) was determined from plots of inhibitor concentration versus extent of platelet aggregation. An inhibition curve for peptide RGDS was determined for each batch of platelets tested as a positive control.

thrombus [3] = conditions: dog, in vivo, iv
Description: (§1) Mongrel dogs (25–35 lb., fasted overnight) were sedated with a combination of ketamine and aceprozamine intramuscularly and then anesthetized with sodium pentabarbital intravenously. In each animal, an 18-gauge angiocath was inserted in the distal half of the right femoral vein and a 5 mm or 8 mm Dacron®-entwined stainless steel embolization coil (Cook Co., Bloomington Ind.) was placed in the femoral vein at approximately mid-femur. The catheter was removed, the wound sutured and the placement of the coil documented by X-ray. The animals were then allowed to recover overnight.
(§2) One day following coil placement, each animal was re-anesthetized, intravenous saline drips placed in each foreleg and a urinary bladder catheter inserted to collect urine. The animal was placed supine under a gamma camera equipped with a low-energy, all purpose collimator and photopeaked for Tc-99m. […] The second line was maintained for blood collection.
(§3) Gamma camera imaging was started simultaneously with injection. Anterior images over the heart were acquired as a dynamic study (10 sec image acquisitions) over the first 10 min, and then as static images at 1, 2, 3 and 4h post-injection. Anterior images over the legs were acquired for 500,000 counts or 20 min (whichever is shorter), at approximately 10–20 min, and at approximately 1, 2, 3 and 4h post-injection. Leg images were collected with a lead shield placed over the bladder.
(§4) Following collection of the final image, each animal was deeply anesthetized with pentobarbital. Two blood samples were collected using a heparinized syringe followed by a euthanizing dose of saturated potassium chloride solution administered by intercardiac or bolus intravenous injection. […] The thrombus, coil and coil Dacron fibres were then dissected free of the vessel. The thrombus, saline-washed vessel samples, coil and coil Dacron® fibres were separated, and each sample was placed in a pre-weighed test tube. The samples were weighed and counted in a gamma well counter in the Tc-99m channel, along with known fractions of the injected doses.
(§5) Fresh thrombus weight, percent injected dose (% ID)/g in the thrombus and blood obtained just prior to euthanasia and thrombus/blood and thrombus/muscle ratios were determined. From the computer-stored images, thrombus/background ratios were determined by analysis of the counts/pixel measured in regions-of-interest (ROI) drawn over the thrombus and adjacent muscle.

thrombus [4] = test: In vivo imaging of deep vein thrombosis with Tc-99m labeled thrombus targeting peptide, canine model; conditions: Tc-99m labeled peptide, i.v., dog
Description: as §1, §2, §3, §4, §5

somatostatin receptor = biological target: T1, somatostatin receptor (Rattus norvegicus, UniProt P30680); test: Inhibition of [125I-Tyr11]somatostatin-14 binding to AR42J rat pancreatic tumor cell membranes; conditions: [125I-Tyr11]somatostatin-14 0.5 nM, 25 min at 30° C.
T1 construct: endogenous in cells; host or cells: AR42J rat pancreatic tumor cells (membrane preparation)
T1 sequence (P30680 whole entry): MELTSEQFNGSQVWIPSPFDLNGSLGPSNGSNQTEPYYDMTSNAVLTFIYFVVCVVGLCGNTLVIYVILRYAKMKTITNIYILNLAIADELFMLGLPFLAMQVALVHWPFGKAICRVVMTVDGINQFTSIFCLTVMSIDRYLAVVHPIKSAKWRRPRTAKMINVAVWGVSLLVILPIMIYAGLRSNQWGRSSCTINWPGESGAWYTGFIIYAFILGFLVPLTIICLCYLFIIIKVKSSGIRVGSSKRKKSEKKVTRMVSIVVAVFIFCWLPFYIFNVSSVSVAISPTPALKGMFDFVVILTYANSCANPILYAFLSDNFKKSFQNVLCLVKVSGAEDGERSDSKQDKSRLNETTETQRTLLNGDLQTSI
Procedure: The rat pancreatic tumor cell line AR42J expressing the somatostatin receptor was cultured in Dulbecco's modified essential media (DMEM) supplemented with 10% fetal calf serum (FCS) and 8 mM glutamine in a humidified 5% CO2 atmosphere at 37° C. Harvested cells were homogenized in cold buffer (50 mM Tris-HCl, pH 7.4), and the homogenate was then centrifuged at 39,000 g for 10 min at 4° C. Pellets were washed once with buffer and then resuspended in ice-cold 10 mM Tris-HCl buffer (pH 7.4). Equal aliquots of this cell membrane preparation were then incubated with [^125I-Tyr^11]somatostatin-14 (Amersham, Arlington Heights, Ill.) at a final concentration of 0.5 nM at 750,000 cpm/mL, specific activity 2000Ci/mmol and either a peptide or peptide-rhenium complex of the invention (at a final concentration ranging from […] in 50 mM HEPES buffer, pH 7.4, containing 1% bovine serum albumin, 5 mM MgCl2, 0.02 mg/mL bacitracin, 0.02 mg/mL phenylmethyl-sulfonylfluoride and 200,000 IU Trasylol) for 25 min at 30° C.
After incubation, this membrane mixture was filtered through a polyethyleneimine-washed GC/F filter (Whatman Ltd., Maidstone, England) using a filtration manifold, and the residue remaining on the filter was washed three times with 5 mL cold HEPES buffer. The filter and a sample of the filter washings were then counted on a gamma counter. […]

[5] = test system: Escherichia coli infected muscle; set-up: species or system New Zealand White (NZW) rabbits; conditions: rabbit, in vivo
Procedure: New Zealand White (NZW) rabbits of both sexes and weighing 2–3 kg were innoculated intramuscularly in the left calf with a potent strain of Escherichia coli. After 24 hours, the animals were sedated by intramuscular injection of ketamine and xylazine and then injected with Tc-99m labeled infection targeting agent (2–10mCi, <150 μg). The animals were then positioned supine in the field of view of a gamma cammera (LEAP collimator/photopeaked for Tc-99m) to be imaged. The animals were imaged over the first hour post-injection, and then at approximately 1 hour intervals for the next 3 hours. Animals were allowed to recover between image acquisiitons and re-anesthetized as needed.
Upon completion of the final imaging, each animal was sacrificed with an intravenous overdose of sodium pentobarbital, then dissected to obtain samples of blood and of infected and control tissue. Tissue samples were weighed and counted using a gamma radition counter; a standard amount the injected dose was counted in parallel with each sample as a control.

[6] = ADP 10 to 15 micromolar, human platelet-rich plasma, read-out: IC50

With “cyclo(N-methyl)FYWDKV.Hcy.(CH2CO.(β-Dap)KCR.amide) [Peptide P832]” the Tumor/Blood [1] was 13.
“cyclo(N-methyl)FYWDKV.Hcy.(CH2CO.(ε-K)GCKK.amide) [Peptide P723]” showed a Tumor/Blood [1] of 5.4.
For “cyclo(N-methyl)FYWDKV.Hcy.(CH2CO.(δ-Dap)GCK.amide) [Peptide P772]”, the Tumor/Blood [1] was 7.2.
For “(CH2CO.YDApc.GDCKGCG.amide)2(CH2CO)2K(ε-K)GC.amide [Peptide P748]”, the IC50 [2, 6] was 29 nM, the Thrombus/Blood (thrombus [3]) was 5.8 and the Thrombus/Muscle (thrombus [3]) was 90.
“(CH2CO.YD.Apc.GDCGGCAcmGCAcmGGC.amide)2(CH2CO)2K(ε-K)GC.amide [Peptide P667]” was tested, and the “% ID/g Thrombus” value (thrombus [4]; after the final image (4h post-injection)) was 0.006 % ID/g, the Thrombus/Blood (thrombus [4]; ratio) was 5.9 and the Thrombus/Muscle (thrombus [4]; ratio) was 30. It also gave an IC50 [2, 6] of 110 nM.
Work on “AKCGGGFDYWDKTFT.amide (AKCGGGFDYWDKTFT-NH2) [Peptide P398]” yielded a Ki (somatostatin receptor) of 1.4 nM.
`CC(=O)N[C@H](Cc1ccc2ccccc2c1)C(=O)N[C@@H](Cc1ccc(Cl)cc1)C(=O)N[C@@H](Cc1ccc(O)cc1)C(=O)N[C@H](Cc1c[nH]c2ccccc12)C(=O)N[C@@H](CCCCN)C(=O)N[C@H](C(=O)N[C@@H](Cc1ccccc1)C(=O)N[C@H](C(=O)NCCCC[C@H](N)C(=O)NCC(=O)N[C@@H](CS)C(=O)N[C@@H](CCCCN)C(=O)N[C@@H](CCCCN)C(N)=O)[C@@H](C)O)[C@@H](C)O` [Peptide P548, acetyl.NalD.Cpa.YWDKTFT(ε-K)GCKK.amide] (Ac-[d2Nal][Phe(4-Cl)]Y[dW]KTFT[εLys]GCKK-NH2) gave a Ki (somatostatin receptor) of 3.6 nM.
“cyclo(N-methyl)FYWDKV.Hcy.(CH2CO.(β-Dap)KCK.amide) [Peptide P829]” was tested, and the Tumor/Blood [1] was 13.
`NCCCSC[C@@H]1NC(=O)[C@@H](Cc2ccc(O)cc2)NC(=O)CSC[C@@H](C(=O)NCC(=O)NCCCC[C@H](NC(=O)CNC(=O)[C@@H]2CSCC(=O)N[C@H](Cc3ccc(O)cc3)C(=O)N[C@@H](CSCCCN)C(=O)NCC(=O)N[C@@H](CC(=O)O)C(=O)N2)C(=O)NCC(=O)NCCCC[C@H](NC(=O)CNC(=O)[C@H](CCCCNC(=O)CNC(=O)[C@@H]2CSCC(=O)N[C@H](Cc3ccc(O)cc3)C(=O)N[C@@H](CSCCCN)C(=O)NCC(=O)N[C@@H](CC(=O)O)C(=O)N2)NC(=O)CNC(=O)[C@@H]2CSCC(=O)N[C@H](Cc3ccc(O)cc3)C(=O)N[C@@H](CSCCCN)C(=O)NCC(=O)N[C@@H](CC(=O)O)C(=O)N2)C(=O)NCCCC[C@H](N)C(=O)NCC(=O)N[C@@H](CS)C(=O)NCC(N)=O)NC(=O)[C@H](CC(=O)O)NC(=O)CNC1=O` [Peptide P681, {(CH2CO.YDApc.GDCG)2KG}2K(ε-K)GCG.amide] (I: {CH2CO}-[dY]C(Propyl(3-NH2))GDCGKGK[εLys]GCG-NH2 / II: {CH2CO}-[dY]C(Propyl(3-NH2))GDCGKG / III: {CH2CO}-[dY]C(Propyl(3-NH2))GDCG / IV: {CH2CO}-[dY]C(Propyl(3-NH2))GDCG; amide I:7-IV:C, I:9-II:C, II:7-III:C (inferred); thioether I:N-I:5, II:N-II:5, III:N-III:5, IV:N-IV:5 (inferred)) was tested, and the IC50 [2] was 110 nM.
In the case of “GGCSIPPEVKFNKPFVYLI.amide (GGCSIPPEVKFNKPFVYLI-NH2) [Peptide P472]”, the “Blood (% ID/g)” value [5] is reported as 0.0076 % ID/g, the “Control Muscle (% ID/g)” value [5] is reported as 0.0009 % ID/g and the “Infected Muscle (% ID/g)” value [5] is reported as 0.0079 % ID/g. For the same compound, the “Ratio of Infected/Blood” value [5] was 1.0 and the “Ratio of Infected/Control” value [5] was 8.8.
For “cyclo(N-methyl)FYWDKV.Hcy.(CH2CO.(δ-Orn)GCK.amide) [Peptide P773]”, the “% ID/g Blood” value ([1]; 1.5 h) was 0.13 % ID/g, the “% ID/g Tumor” value ([1]; 1.5 h) was 1.9 % ID/g and the Tumor/Blood ([1]; 1.5 h) was 15.
In the case of GGCGLF [Peptide P477], the “Blood (% ID/g)” value [5] is reported as 0.0140 % ID/g, the “Control Muscle (% ID/g)” value [5] is reported as 0.0012 % ID/g and the “Infected Muscle (% ID/g)” value [5] is reported as 0.0100 % ID/g. The “Ratio of Infected/Blood” value [5] was 0.72 and the “Ratio of Infected/Control” value [5] was 8.4.
`NCCCC[C@H](NC(=O)[C@@H]1CSCC(=O)N[C@H](Cc2ccc(O)cc2)C(=O)N[C@@H](CSCCCN)C(=O)NCC(=O)N[C@@H](CC(=O)O)C(=O)N1)C(=O)NCC(=O)NCC(=O)NCCCC[C@H](NC(=O)CNC(=O)CNC(=O)[C@H](CCCCN)NC(=O)[C@@H]1CSCC(=O)N[C@H](Cc2ccc(O)cc2)C(=O)N[C@@H](CSCCCN)C(=O)NCC(=O)N[C@@H](CC(=O)O)C(=O)N1)C(=O)NCCCC[C@H](N)C(=O)NCC(=O)N[C@@H](CS)C(=O)NCCC(N)=O` [Peptide P687, (CH2CO.YD.Apc.GDCKGG)2K(ε-K)GC.β-Ala.amide] (I: {CH2CO}-[dY]C(Propyl(3-NH2))GDCKGGK[εLys]GC[βAla]-NH2 / II: {CH2CO}-[dY]C(Propyl(3-NH2))GDCKGG; amide I:9-II:C (inferred); thioether I:N-I:5, II:N-II:5 (inferred)) was tested, and the IC50 [2] was 79 nM.
`CC(=O)NCSC[C@H](NC(=O)CNC(=O)CNC(=O)[C@@H]1CSCC(=O)N[C@H](Cc2ccc(O)cc2)C(=O)N[C@@H](CSCCCN)C(=O)NCC(=O)N[C@@H](CC(=O)O)C(=O)N1)C(=O)NCC(=O)N[C@@H](CSCNC(C)=O)C(=O)NCC(=O)NCC(=O)N[C@@H](CSCC(=O)NCCCC[C@H](NC(=O)CSC[C@H](NC(=O)CNC(=O)CNC(=O)[C@H](CSCNC(C)=O)NC(=O)CNC(=O)[C@H](CSCNC(C)=O)NC(=O)CNC(=O)CNC(=O)[C@@H]1CSCC(=O)N[C@H](Cc2ccc(O)cc2)C(=O)N[C@@H](CSCCCN)C(=O)NCC(=O)N[C@@H](CC(=O)O)C(=O)N1)C(N)=O)C(=O)NCCCC[C@H](NC(=O)[C@H](CCCCNC(=O)CSC[C@H](NC(=O)CNC(=O)CNC(=O)[C@H](CSCNC(C)=O)NC(=O)CNC(=O)[C@H](CSCNC(C)=O)NC(=O)CNC(=O)CNC(=O)[C@@H]1CSCC(=O)N[C@H](Cc2ccc(O)cc2)C(=O)N[C@@H](CSCCCN)C(=O)NCC(=O)N[C@@H](CC(=O)O)C(=O)N1)C(N)=O)NC(=O)CSC[C@H](NC(=O)CNC(=O)CNC(=O)[C@H](CSCNC(C)=O)NC(=O)CNC(=O)[C@H](CSCNC(C)=O)NC(=O)CNC(=O)CNC(=O)[C@@H]1CSCC(=O)N[C@H](Cc2ccc(O)cc2)C(=O)N[C@@H](CSCCCN)C(=O)NCC(=O)N[C@@H](CC(=O)O)C(=O)N1)C(N)=O)C(=O)NCCCC[C@H](N)C(=O)NCC(=O)N[C@@H](CS)C(=O)NCC(N)=O)C(N)=O` [Peptide P688, {(CH2CO.YD.Apc. GDCGGCAcmGCAcmGGCamide)2(CH2CO)2K}2.K(ε-K)GCG.amide] was tested, and the IC50 [2, 6] was 26 nM.
